Experimental data as given in patent US12383628B2 (priority 2016, dated 2025).
Several values for one entry are separate records, joined by “and”; a condition that tells them apart may be missing. Identical values can stand only once. Entries after “also recorded” stand apart in the source; their conditions may differ. Like-named read-outs stand apart in the source and are kept apart here. Square brackets hold non-standard residues; d marks the D form. Ends that are not written are not given here. Peptide text beside a SMILES is read from it. Dmt = Cc1cc(O)cc(C)c1C[C@H](N)C(=O)O

How the values were obtained:
[1] = Stability and degradability of biogels in human plasma (Example 8); format: in vitro ADME; details: human plasma, 37° C.; for half-life at 14 μM: human, in solution
Method: After centrifugation at 14 000 rpm for 15 minutes, 100 μL supernatant was diluted with 100 μL milliQ water in the injection vial. Injection samples were vortexed for 5 seconds and were analyzed by HPLC. […] Calculations were performed using Microsoft® Office Professional 2010 Excel.

KOR = KOR (Homo sapiens, UniProt P41145); assay: Binding tests (Ki) KOR
DOR = DOR (Homo sapiens, UniProt P41143); assay: Binding tests (Ki) DOR
MOR = MOR (Homo sapiens, UniProt P35372); assay: Binding tests (Ki) MOR
[2] = In vivo monitoring of cargo release with SPECT/CT; parameters: species or system C57Bl/6J mice
Method: The ^111In-labeled molecules were diluted up to 1 ml with PBS and either used as such, or incorporated within the hydrogel as described below.
Images were reconstructed using a filtered back-projection algorithm.
Images were quantified using the software AMIDE (sourceforge.net).

in vitro [3] = details: human, plasma, 37° C., in solution
Method: Human plasma was obtained from the Belgian Red Cross (Vlaams-Brabant, Leuven). […] Frozen (−20° C.) human plasma samples were thawed and thermostated to 37+2° C. Dissolution of the lyophilized peptide and consecutive dilutions were performed in water. […] On every time point 100 μL spiked plasma was transferred to a 500 μL Eppendorf tube and a protein crash was performed using 300 μL methanol+0.1% TFA (4° C.). Suspensions were vortexed for 15 seconds and placed at 4° C. for 30 to 45 minutes. After centrifugation at 14000 rpm for 20 minutes, 100 μL supernatant was diluted with 100 μL water in the injection vial. Injection samples were vortexed for 5 seconds and placed in the autosampler. […] Concentrations were calculated by use of the calibration curve and transferred to a semi-log chart presenting the log concentrations as a function of time. The optimum curve was used to calculate the peptide-half life. Calculations were performed using Microsoft® Office Professional 2010 Excel.

[4] = Peptide gelation (tilted tube / inverted vial test, minimum gelation concentration); format: physicochemical
Method: The peptide gelation occurred by dissolving the TFA salt of the hexapeptide (2 mg) in 100 μL of PBS solution (pH 7.4) or physiological saline solution (0.9% NaCl).
Both peptides 2 and 4 (Table 1) gave a transparent gel in the same conditions (PBS 10 mM at pH 7.4 with a minimum gelation concentration of 24 mM; 2% w/v). To evaluate the mechanical properties of these hydrogels in a more quantitative manner, rheological experiments were performed. The viscoelastic properties of the peptide hydrogels were measured by dynamic rheometry at 37° C. This technique allowed to measure the storage modulus G′ (corresponding to the material's stiffness or rigidity), loss modulus G″ (corresponding to the viscous properties of the material) and loss factor tan (o) (ratio of G″ over G′). According to the Winter-Chambon criterion, a material reaches gelation in rheological terms if the phase angle o gets frequency-independent (F. Chambon et al., 1987 and H. Winter et al., 1987).
The peptide gelation occurred by dissolving the TFA salt of the peptide in 100 μL of PBS solution or physiological saline solution (0.9% NaCl) (pH 7.4).
The peptide gelation occurs by dissolving the TFA salt of the hydrogelator (1 or 2 mg) in 100 μL of aqueous media, PBS solution (pH 7.4) or physiological saline solution (0.9% NaCl). After successive vortexing and sonication, the gel is left to rest overnight at room temperature.
The hydrogelation was realized under physiologically relevant conditions, namely via the addition of phosphate-buffered saline (PBS) or sterile physiological saline solution (0.9% NaCl). The needed amount of hydrogelator was weighed in an Eppendorf® and solubilized by the addition of the above solutions. After vortex and sonication steps, the resulting solution was left at room temperature until gelation occurred. The gelation was qualitatively verified by the inverted vial test (if no gravitational flow was visible the gelation was considered successful). It can be noticed that all peptide hydrogelators depicted formed gels in PBS and saline solution at a concentration of 1 to 2% w/v.

pH of the hydrogel = format: physicochemical
[5] = Dynamic rheometry of hydrogels (storage modulus G′); format: physicochemical; details: 2% w/v in PBS, 37° C., value at 1 Hz
Method: Dynamic rheometry measurements were performed on an AR-G2 rheometer (TA Instruments) equipped with electrically heated plates and a 10 mm-diameter aluminium parallel plate-plate geometry. Viscoelastic properties were measured by oscillatory frequency sweeps at 37° C. in the range between 0.01 and 10 Hz, using a controlled strain of 0.05%. Hydrogel samples were made 12 h in advance. A ring-shaped reservoir filled with a saturated NH4Cl solution was used as a solvent trap.

[6] = for Hydrogel volume remaining: 2 w/v% in PBS, 150 μL s.c.
Method: ^111/n-labeling of DOTA-peptide—^111InCb (5 μl,±4 MBq) (Mallinckrodt) was added to 200 μl 1 mg/ml DOTA-peptide 6, dissolved in 0.2 M ammonium acetate buffer (NH4OAc) pH 5, and incubated for 30 min at 50° C. Radiochemical purity (>95%) was verified by ITIC using 0.1 M citrate buffer pH 5 as mobile phase. 200 μl of ^111In-peptide 6 was diluted up to 1 ml with phosphate buffered saline (PBS, 10 mM) and incorporated within the hydrogel as described below.
After sequential vortexing and sonication, hydrogels (2 w/v¾) were formed and let to rest overnight.
C57Bl/6J mice were purchased by Charles River (n=3 per group) and all experimental procedures were performed under 2.5% isoflurane anesthesia (Iso-vet). 150 μL (0.518±0.037 MBq) of the ^111In-labeled hydrogel (stability experiment) or 150 μL (1.702±0.777 MBq) of hydrogels loaded with ^111In-labeled cargos (cargo release experiment) were injected subcutaneously on the hind limb. For comparison, 150 μL of ^111In-labeled cargos not loaded into a hydrogel were also subcutaneously injected. Immediately after injection, at 1 h30, 3 h, 6 h, 12 h, 24 h, 48 h and 72 h, animals were subjected to a SPECT/CT scan. SPECT images were acquired on an e.cam^180 system (Siemens) equipped with two triple-pinhole collimators designed for ^111In (1.5 mm pinhole opening, 250 mm focal length, 47 mm radius of rotation). Images were acquired over 360° in 64 projections of 30 s into a 128×128 matrix and reconstructed using an iterative algorithm correcting for radioactive decay and allowing automatic fusion with CT images (based on six 57Co fiducial markers). […]
Maximum intensity projections (MIPs) were generated in Osirix Medical Software. Images were quantified using the software AMIDE (sourceforge.net). For the stability experiments, the size of the gel was determined by automatic delineation, for the cargo release experiments, the total radioactivity within a ROI drawn on the hind limb was calculated. Results were expressed as percentage of injected dose remaining in function of time. […]

[7] = system: L929 (mouse fibroblast) cells; assay: Live/Dead cell viability assay on hydrogels (Example 5); format: cell-based; details: 24 h on hydrogel
Method: L929 (mouse fibroblast) cells were obtained from ATCC® and maintained in Gibco®, MEM with GlutaMAX supplemented with 10% FBS (SAFC, Sigma), 1% Anti-Anti (100×, Gibco®) and 1% NEAA (100×, Gibco®). Cells were maintained on tissue culture treated polystyrene (TCPS) plates at 37° C. in a humified atmosphere containing 5% CO2 and 95% air. Cells were trypsinized, harvested and counted using a hemocytometer. The resulting cell suspension was diluted in Gibco® solution before addition to the hydrogels. For ease of handling and to produce homogeneous clear hydrogels, 100 μL of peptide hydrogels were prepared (in corresponding gelation conditions, see above) in Eppendorf tubes (0.5 ml) and transported using a 21G syringe to 96-well plates after simultaneously heating (60° C.) and mixing (900 rpm) using an Eppendorf ThermoMixer®. The hydrogels were left to set overnight in the wells at room temperature and were subsequently washed twice with 200 μL of Anti-Anti (100×, Gibco®) solution, 2 h each. After washing, media was removed and cells were seeded evenly over hydrogels. Cells were plated in duplicate on all hydrogels and control wells. Viability of cells on hydrogels was determined using the traditional Live/dead cell viability assay (Invitrogen) after culture durations of 24 h.
Plates were incubated in 5% CO2 at 37° C. for 1 day to allow cell attachment and spreading to occur. […]

[8] = TEM / cryo-TEM fibre morphology of hydrogels; format: physicochemical
Method: Formvar carbon-coated 400-mesh copper grids (Agar Scientific, Stansted, United Kingdom) were treated with plasma using an ELMO Glow discharge system to clean the grid surface and to render the carbon surface hydrophilic. Hydrogel samples were prepared 12 h in advance as described above. Small aliquots of sample (5 μL) were pipetted onto the carbon grids for adsorption. After 30 s, excess of sample was removed by using a Whatman 541 filter paper. The loaded grids were stained during 10 s with 1% uranyl formate after which the grids were air-dried. Samples were analysed using a JEOL JEM-1400 transmission electron microscope, operating at accelerating voltage of 120 kV. Images were recorded on a CMOS TemCam-F416 camera and accessory software of TVIPS.
200-mesh copper grids coated with perforated carbon film (Lacey carbon film: ProSci-Tech Old, Australia) were used and were glow discharged in nitrogen for 5 s immediately prior to use. Hydrogel samples were prepared 12 h in advance as described above. Small aliquots of sample (4 μL) were pipetted onto the carbon grids for adsorption. After 30 s, excess of sample was removed by using a Whatman 541 filter paper. The grid was then plunged into liquid ethane cooled by liquid nitrogen. Frozen grids were stored in liquid nitrogen until required. Samples were analysed using a Gatan 626 cryoholder and Tecnai 12 Transmission electron microscope, operating at accelerating voltage of 120 kV. Images were recorded using an FEI Eagle 4k×4k CCD camera.

in vitro [9] = details: human, plasma
Method: Human plasma was obtained from the Belgian Red Cross (Vlaams-Brabant, Leuven). Prior to the stability test, selectivity, stability of the compound in the injection solvent, linearity, accuracy and precision of the method were investigated. Frozen (−20° C.) human plasma samples were thawed and thermostated to 37±2° C. Dissolution of the lyophilized peptide and consecutive dilutions were performed in water. The resulting aqueous solutions of each peptide individually was spiked in human plasma (10:90 v/v) with final plasma concentrations of 9 μM.
On every time point 100 μL spiked plasma was transferred to a 500 μL Eppendorf tube and a protein crash was performed using the corresponding precipitation solvent (4° C.). Suspensions were vortexed for 15 s and placed at 4° C. for 30 to 45 min. After centrifugation at 18 625 g for 20 min, 100 μL supernatant was diluted with 100 μL water in the injection vial.
Injection samples were vortexed for 5 sand placed in the autosampler. […] Concentrations were calculated by use of the calibration curve and transferred to a semi-log chart presenting the log concentrations as a function of time. The optimum curve was used to calculate the peptide half-life. Calculations were performed using Microsoft® Office Professional 2010 Excel.

L929 mouse fibroblasts = assay: Cytotoxicity, Live/Dead viability staining on hydrogels (Example 9); format: cell-based
Method: Hydrogels were prepared at 1, 2 or 3 mg/100 μL as duplicate in a 96-well ULA plate (Cat #CORN3474; Corning-Costar, 60 μL each well). The gels were photographed and pre-equilibrated before seeding with cells. For equilibration, gels were incubated at room temperature in 40 μL of L929 culture medium with double-strength Anti-Anti (Cat #15240062, GIBCO) for 2 h prior to seeding with cells. The equilibration medium was removed before cell seeding and retained to examine if the gels dissolved (even partially) or disintegrated into the culture medium. Next, […] mouse fibroblasts (ATCC) were seeded onto hydrogels at a concentration of 200,000 cells/ml in a volume of 50 μl. The cells were photographed immediately after seeding, observed by microscopy 2 h post-seeding and then observed and photographed at 24 h post-seeding. The cell culture medium consisted of MEM+GlutaMAX I (Cat #41090-036; GIBCO); 10% foetal bovine serum (Cat #12003C; SAFC, Sigma), 2× Anti-Anti (Cat #[…]) and 1× Non-Essential Amino Acids (Cat #41090-036; GIBCO).
Bright field microscopy was performed through use of a IX71 inverted microscope with NIS-Elements F3.0 imaging software (Olympus). The TE2000 Eclipse fluorescent microscope with NIS-Elements AR3.2 software (Nikon) was used for fluorescence imaging microscopy. Automated cell counting was performed on the NC-200 NucleoCounter using proprietary lysis and stabilising reagents and cassettes (ChemoMetec).
The viability and distribution of cells was assessed using a LIVE/DEAD Viability/Cytotoxicity Kit *for Mammalian cells* (Live-Dead Kit), (Cat #13224; Molecular Probes). Briefly, a working solution of live/dead solution was made as per manufacturer's instructions by adding 1.25 μl of Calcein AM (solution A) to 2.5 ml of pre-warmed PBS. The solution was thoroughly mixed by vortex and 2.5 μl of Ethidium homodimer (solution B), was added before vortexing a second time to mix. Excess medium was removed and the gels rinsed with 20 μl of warm PBS before a 40 μl of Live/Dead kit working solution was added to each well. The plate was incubated in a 37° C. cell culture incubator for 20 min before viewing using a fluorescent microscope. Green fluorescence was emitted from the cytoplasm of viable cells (excitation/emission ˜495 nm/˜515 nm) while dead cell nuclei fluoresced red (excitation/emission ˜495/˜635 nm) allowing a distinction to be made between viable and dead cells.

[10] = In vivo monitoring of cargo release with fluorescence imaging; parameters: species or system athymic nude mice
Method: Fluorescent cargo—IRDye800CW N-hydroxysuccinimide (NHS) ester (Li-COR Biosciences) was solubilized at 4 mg/l in PBS. The solution was stirred for 2 h in order to hydrolyze the NHS ester, resulting in compound 2 as fluorescent cargo (MW=1068 g/mol). The dye solution was either used as such, or incorporated within the hydrogel as described below.
Animal study protocols were approved by the Ethical Committee for Animal Experiments of the Vrije Universiteit Brussel (also for section 2.5.). After subcutaneous injection of 150 μl of hydrogel containing 0.5 nmol of IRDye 800CW in athymic nude mice (Charles River, n=3 per group), fluorescence reflectance images of the posterior side of the mice were acquired over 24 h using the Fluobeam800 (Fluoptics) under 2.5% isoflurane anesthesia (Iso-Vet, Eurovet NV/SA). Fluorescence images were overlaid with white light images for anatomical localization. Regions of interest (ROI) were drawn around the site of injection and total fluorescence signal was measured within these ROIs using ImageJ software.

KOR, sequence (P41145 whole entry): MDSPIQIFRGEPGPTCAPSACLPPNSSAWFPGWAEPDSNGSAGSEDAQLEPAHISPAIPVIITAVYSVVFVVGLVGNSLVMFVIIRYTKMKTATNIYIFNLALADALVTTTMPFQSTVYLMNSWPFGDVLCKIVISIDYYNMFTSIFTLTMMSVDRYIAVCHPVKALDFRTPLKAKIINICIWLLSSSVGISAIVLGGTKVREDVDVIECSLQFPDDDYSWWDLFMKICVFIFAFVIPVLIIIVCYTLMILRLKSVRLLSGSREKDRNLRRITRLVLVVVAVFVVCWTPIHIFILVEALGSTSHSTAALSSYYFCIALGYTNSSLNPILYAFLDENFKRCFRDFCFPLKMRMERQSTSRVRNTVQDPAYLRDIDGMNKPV
DOR, sequence (P41143 whole entry): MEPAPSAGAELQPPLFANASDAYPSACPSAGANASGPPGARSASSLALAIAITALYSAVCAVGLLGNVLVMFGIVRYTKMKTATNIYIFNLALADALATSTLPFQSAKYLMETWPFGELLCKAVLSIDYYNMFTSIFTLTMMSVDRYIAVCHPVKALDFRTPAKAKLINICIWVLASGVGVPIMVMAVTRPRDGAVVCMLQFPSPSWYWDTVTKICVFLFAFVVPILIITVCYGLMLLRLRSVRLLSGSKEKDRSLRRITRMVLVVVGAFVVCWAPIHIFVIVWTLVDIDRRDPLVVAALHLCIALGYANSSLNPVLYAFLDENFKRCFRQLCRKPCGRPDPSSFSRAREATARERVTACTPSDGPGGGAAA
MOR, sequence (P35372 whole entry): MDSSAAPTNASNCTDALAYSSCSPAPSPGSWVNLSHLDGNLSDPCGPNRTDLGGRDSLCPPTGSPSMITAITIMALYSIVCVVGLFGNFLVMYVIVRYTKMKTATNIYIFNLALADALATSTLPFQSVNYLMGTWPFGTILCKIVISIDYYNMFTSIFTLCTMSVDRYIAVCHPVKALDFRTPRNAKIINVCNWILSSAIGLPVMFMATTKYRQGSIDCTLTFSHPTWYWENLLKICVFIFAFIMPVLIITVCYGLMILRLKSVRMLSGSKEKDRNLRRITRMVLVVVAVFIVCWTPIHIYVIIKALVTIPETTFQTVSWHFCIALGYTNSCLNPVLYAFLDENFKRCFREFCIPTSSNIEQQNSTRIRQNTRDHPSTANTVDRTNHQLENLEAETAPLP

Q: Which results are given for Cc1cc(O)cc(C)c1C[C@H](N)C(=O)N[C@H](CCCCN)C(=O)N[C@@H](Cc1ccccc1)C(=O)N[C@@H](Cc1ccccc1)C(=O)N[C@@H](CCC(=O)O)C(=O)N[C@@H](Cc1ccccc1)C(=O)N[C@@H](CCC(N)=O)C(=O)N[C@@H](Cc1ccccc1)C(=O)N[C@@H](CCCCN)C(N)=O [CM-53, Dmt-DLys-Phe-Phe-Glu-Phe*-Gln-Phe-Lys-NH2] (H-[Dmt][dK]FFEFQFK-NH2; N-terminus assumed)?
A: Time at which degradation of the heptapeptide into the N-terminal pentapeptide started [1]: 7.5 min; Time at which degradation of the pentapeptide into tripeptide was observed [1]: 60 min; Time of appearance of the heptapeptide (loss of Phe-Lys-NH2) [1]: 2.5 min; half-life at 14 μM [1]: ~18 min; Ki (KOR): 337 nM; Ki (DOR): 24 nM; Ki (MOR): 7.4 nM

Q: Which results are given for Cc1cc(O)cc(C)c1C[C@H](N)C(=O)N1CCC[C@H]1C(=O)N[C@@H](Cc1c[nH]c2ccccc12)C(=O)N[C@@H](Cc1ccccc1)C(=O)N[C@@H](CCC(N)=O)C(=O)N[C@@H](Cc1ccccc1)C(=O)N[C@@H](CCC(N)=O)C(=O)N[C@@H](Cc1ccccc1)C(=O)N[C@@H](CCCCN)C(N)=O [CM-58, Dmt-Pro-Trp-Phe-Gln-Phe*-Gln-Phe-Lys-NH2] (H-[Dmt]PWFQFQFK-NH2; N-terminus assumed)?
A: half-life at 14 μM [1]: ~12 min; Ki (KOR): 120 nM; Ki (DOR): 15 nM; Ki (MOR): 7.5 nM

Q: With “DOTA-4-amino-2-cyclohexylmethyl-indolo[3,4-c]azepin-2-on [small molecule 3]” as the compound, how does the “Clearance from the injection site” value ([2]; 111In-labeled cargo s.c. in solution, 1 mg/ml) read?
A: totally cleared within three hours

Q: And the Release profile ([2]; co-formulated within hydrogel of peptide 2, s.c.)?
A: released in a rather fast manner

Q: Which results are given for “FEFQFK [peptide 1, H-Phe-Glu-Phe*-Gln-Phe-Lys-OH]”?
A: half-life at 72 μM (in vitro [3]): ~2 min; Minimum gelation concentration ([4]; in mQ:PBS 50:50): 1 (in mQ:PBS w/v %; pH of the gel (pH of the hydrogel; listed as MBG-1): < 4 and 3.49

Q: With “FEFQFK-NH2 [peptide 2, H-Phe-Glu-Phe*-Gln-Phe-Lys-NH2]” as the compound, how does the “Storage modulus G′” value [5] read?
A: ca. 8000 Pa

Q: And the half-life at 72 μM (in vitro [3])?
A: ~15 min

Q: And the Re-gelation after injection ([4]; 25G needle used for s.c. injections)?
A: immediate re-gelation after injection through a 25G needle

Q: And the Minimum gelation concentration ([4]; PBS 10 mM, pH 7.4)?
A: 24 mM

Q: And the Minimum gelation concentration ([4]; PBS 10 mM, pH 7.4 (text, Examples 1-2))?
A: 2 % w/v

Q: And the “Minimum gelation concentration (w/v % in PBS)” value ([4]; in PBS, '/' = no gel)?
A: 2 w/v %

Q: And the Hydrogel volume remaining ([6]; 12 h)?
A: 24%

Q: What about the Hydrogel volume remaining ([6]; 72 h post-injection) of the same compound?
A: 9%

Q: And the “Time within which most degradation occurred” value ([6]; after subcutaneous injection of the hydrogel)?
A: ≤ 12 h

Q: And the “Cytotoxicity (Live/Dead cell viability, qualitative)” value [7]?
A: the majority of cells were green fluorescent and thus, were viable; also recorded: noncytotoxic

Q: And the “pH of the gel” value (pH of the hydrogel)?
A: 4.02

Q: And the Fibre thickness ([8]; TEM, Example 2)?
A: ca. 10 nm

Q: And the Fibre diameter ([8]; cryoTEM and negative staining, Example 9)?
A: ~5 nm

Q: What about the half-life at 9 μM (in vitro [9]) of the same compound?
A: ~15 min

Q: And the Cytotoxicity in vitro (L929 mouse fibroblasts)?
A: showed no cytotoxicity in vitro

Q: With IRDye 800CW carboxylate as the compound, how does the “Time the fluorescent signal remains visible” value ([10]; dye co-formulated within hydrogel of peptide 2 (2 w/v%), s.c.) read?
A: more than 24 h

Q: What about the “Fluorescent signal at the injection site” value ([10]; dye injected s.c. as solution) of the same compound?
A: reduces drastically within approximately two hours
